Test results reported in patent US20260297080A1, “BICYCLIC COMPOUNDS AS CDK INHIBITORS” (BeOne Medicines I GmbH, priority 2022, published 2026).

Legend:
CDK1/Cyclin B1 = CDK1/Cyclin B1 (Homo sapiens, UniProt P06493); assay: CDK1/Cyclin B1 Biochemical Assay (TR-FRET), 0.015 mM ATP; details: 0.15 μM Rb (Ser780)-biotin substrate, pH7.0, 60 min preincubation, 120 min reaction, room temperature
Summary of the method: (§1)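 TR-FRET assay with 0.15 μM Rb (Ser780)-biotin substrate and 0-10 μM compound in 50 mM HEPES pH7.0, 50 mM MgCl2, 1 mM DTT. ATP was 0.060 mM for CDK2/Cyclin E1 and 0.015 mM for CDK1/Cyclin B1. Kinase was preincubated with compound 60 min, reacted 120 min at room temperature, and IC50 was fitted (four-parameter) from the 665/620 nm ratio.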

CDK2/Cyclin E1 = CDK2/Cyclin E1 (Homo sapiens, UniProt P24941); assay: CDK2/Cyclin E1 Biochemical Assay (TR-FRET), 0.060 mM ATP; details: 0.15 μM Rb (Ser780)-biotin substrate, pH7.0, 60 min preincubation, 120 min reaction, room temperature
Summary of the method: as §1

Chain of CDK1/Cyclin B1 (P06493 whole entry): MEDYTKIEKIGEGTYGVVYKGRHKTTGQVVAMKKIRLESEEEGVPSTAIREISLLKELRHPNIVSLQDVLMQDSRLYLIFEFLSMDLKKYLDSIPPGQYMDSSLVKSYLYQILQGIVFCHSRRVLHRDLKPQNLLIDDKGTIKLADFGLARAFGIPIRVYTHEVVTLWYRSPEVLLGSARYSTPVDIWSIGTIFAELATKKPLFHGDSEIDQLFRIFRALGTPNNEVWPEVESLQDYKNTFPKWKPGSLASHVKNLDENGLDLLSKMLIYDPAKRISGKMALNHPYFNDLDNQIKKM
Chain of CDK1/Cyclin B1 (P14635 whole entry partner): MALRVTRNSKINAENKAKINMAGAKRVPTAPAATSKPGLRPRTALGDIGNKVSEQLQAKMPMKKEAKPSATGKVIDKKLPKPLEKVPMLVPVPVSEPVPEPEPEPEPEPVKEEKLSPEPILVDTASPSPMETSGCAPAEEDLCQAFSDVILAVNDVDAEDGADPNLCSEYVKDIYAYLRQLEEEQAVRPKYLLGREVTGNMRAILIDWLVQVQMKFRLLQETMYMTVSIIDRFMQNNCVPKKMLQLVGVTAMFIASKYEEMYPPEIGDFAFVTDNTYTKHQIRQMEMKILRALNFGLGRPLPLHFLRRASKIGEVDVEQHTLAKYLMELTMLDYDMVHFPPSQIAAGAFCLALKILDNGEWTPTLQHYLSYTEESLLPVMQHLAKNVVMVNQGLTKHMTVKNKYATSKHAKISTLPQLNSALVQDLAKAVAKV

Row | Structure (SMILES) | IC50 (CDK1/Cyclin B1) | IC50 (CDK2/Cyclin E1)
1 | CCCNC(=O)O[C@H]1CC[C@@H](c2cc(Nc3ccc4c(c3Cl)CNS4(=O)=O)n[nH]2)C1 (racemic) [Example 39, cis-3-(3-((4-chloro-1,1-dioxido-2,3-dihydrobenzo[d]isothiazol-5-yl)amino)-1H-pyrazol-5-yl)cyclopentyl propylcarbamate] | 0.374 µM | 0.015 µM
2 | CC(C)NC(=O)O[C@@H]1CC[C@H](c2cc(Nc3ccc4c(c3)NS(=O)(=O)C4)n[nH]2)C1 (stereo in doubt) [Example 303a, cis-3-(3-((2,2-dioxido-1,3-dihydrobenzo[c]isothiazol-6-yl)amino)-1H-pyrazol-5-yl)cyclopentyl isopropylcarbamate] | 0.048 µM | 0.0026 µM
3 | CCN1Cc2c(ccc(Nc3cc([C@@H]4CC[C@H](OC(=O)NC(C)C)C4)[nH]n3)c2F)S1(=O)=O (relative stereo) [Example 60, cis-3-(3-((2-ethyl-4-fluoro-1,1-dioxido-2,3-dihydrobenzo[d]isothiazol-5-yl)amino)-1H-pyrazol-5-yl)cyclopentyl isopropylcarbamate] | 0.497 µM | 0.0092 µM
4 | COCCN1c2ccc(Nc3cc([C@@H]4CC[C@H](OC(=O)NC(C)C)C4)[nH]n3)cc2CS1(=O)=O (relative stereo) [Example 204, cis-3-(3-((1-(2-methoxyethyl)-2,2-dioxido-1,3-dihydrobenzo[c]isothiazol-5-yl)amino)-1H-pyrazol-5-yl)cyclopentyl isopropylcarbamate] | 0.051 µM | 0.0018 µM
5 | CC[C@H](C)NC(=O)O[C@H]1CC[C@@H](c2cc(Nc3ccc4c(c3F)CS(=O)(=O)N4C3CC3)n[nH]2)C1 (relative stereo) [Example 278, cis-3-(3-((1-cyclopropyl-4-fluoro-2,2-dioxido-1,3-dihydrobenzo[c]isothiazol-5-yl)amino)-1H-pyrazol-5-yl)cyclopentyl((S)-sec-butyl)carbamate] | 0.056 µM | 0.0013 µM
6 | CC(C)NC(=O)O[C@H]1CC[C@@H](c2cc(Nc3ccc4c(c3)C(C)S(=O)(=O)N4)n[nH]2)C1 (single isomer, unassigned) [Example 384d, cis-3-(3-((3-methyl-2,2-dioxido-1,3-dihydrobenzo[c]isothiazol-5-yl)amino)-1H-pyrazol-5-yl)cyclopentyl isopropylcarbamate] | 0.057 µM | 0.0018 µM
7 | CC1(NC(=O)O[C@H]2C[C@@H](c3cc(Nc4cc5c(cc4F)S(=O)(=O)NC5)n[nH]3)C2)CC1 [Example 411, (1s,3s)-3-(3-((6-fluoro-1,1-dioxido-2,3-dihydrobenzo[d]isothiazol-5-yl)amino)-1H-pyrazol-5-yl)cyclobutyl(1-methylcyclopropyl)carbamate] | 0.386 µM | 0.0094 µM
8 | CCCNC(=O)O[C@H]1CC[C@@H](c2cc(Nc3ccc4c(c3F)CN(C3COC3)S4(=O)=O)n[nH]2)C1 (relative stereo) [Example 136, cis-3-(3-((4-fluoro-2-(oxetan-3-yl)-1,1-dioxido-2,3-dihydrobenzo[d]isothiazol-5-yl)amino)-1H-pyrazol-5-yl)cyclopentyl propylcarbamate] | 0.457 µM | 0.022 µM
9 | CN1c2ccc(Nc3cc([C@@H]4CC[C@H](OC(=O)NC5(C)CCOC5)C4)[nH]n3)c(F)c2CS1(=O)=O (single isomer, unassigned) [Example 349d, cis-3-(3-((4-fluoro-1-methyl-2,2-dioxido-1,3-dihydrobenzo[c]isothiazol-5-yl)amino)-1H-pyrazol-5-yl)cyclopentyl(3-methyltetrahydrofuran-3-yl)carbamate] | 0.152 µM | 0.0014 µM
10 | COCN1c2c(F)cc(Nc3cc([C@@H]4CC[C@H](OC(=O)NC(C)C)C4)[nH]n3)cc2CS1(=O)=O (relative stereo) [Example 282, cis-3-(3-((7-fluoro-1-(methoxymethyl)-2,2-dioxido-1,3-dihydrobenzo[c]isothiazol-5-yl)amino)-1H-pyrazol-5-yl)cyclopentyl isopropylcarbamate] | 0.141 µM | 0.0077 µM
11 | CC(C)NC(=O)O[C@H]1CC[C@@H](c2cc(Nc3cc4c(cc3F)N(CCO)S(=O)(=O)C4)n[nH]2)C1 (single isomer, unassigned) [Example 296a, cis-3-(3-((6-fluoro-1-(2-hydroxyethyl)-2,2-dioxido-1,3-dihydrobenzo[c]isothiazol-5-yl)amino)-1H-pyrazol-5-yl)cyclopentyl isopropylcarbamate] | 0.8 µM | 0.015 µM
12 | CC(C)NC(=O)O[C@H]1CC[C@@H](c2cc(Nc3ccc4c(c3)C3(CC3)S(=O)(=O)N4C)n[nH]2)C1 (relative stereo) [Example 201, cis-3-(3-((1-methyl-2,2-dioxido-1H-spiro[benzo[c]isothiazole-3,l′-cyclopropan]-5-yl)amino-1H-pyrazol-5-yl)cyclopentyl isopropylcarbamate] | 0.13 µM | 0.011 µM
13 | CC(C)NC(=O)O[C@H]1CC[C@@H](c2cc(Nc3ccc4c(c3F)C(C)NS4(=O)=O)n[nH]2)C1 (single isomer, unassigned) [Example 51d, cis-3-(3-((4-fluoro-3-methyl-1,1-dioxido-2,3-dihydrobenzo[d]isothiazol-5-yl)amino)-1H-pyrazol-5-yl)cyclopentyl isopropylcarbamate] | 0.447 µM | 0.0087 µM
14 | CC(C)NC(=O)O[C@H]1CC[C@@H](c2cc(Nc3ccc4c(c3)CN(c3ccc5c(c3)CNS5(=O)=O)S4(=O)=O)n[nH]2)C1 (relative stereo) [Example 18, cis-3-(3-((1,1,1′,1′-tetraoxido-2′,3′-dihydro-3H-[2,5′-bibenzo[d]isothiazol]-5-yl)amino)-1H-pyrazol-5-yl)cyclopentyl isopropylcarbamate] | 0.422 µM | 0.0215 µM
15 | COCC(C)(C)NC(=O)O[C@H]1CC[C@@H](c2cc(Nc3ccc4c(c3)CS(=O)(=O)N4C)n[nH]2)C1 (relative stereo) [Example 369, cis-3-(3-((1-methyl-2,2-dioxido-1,3-dihydrobenzo[c]isothiazol-5-yl)amino)-1H-pyrazol-5-yl)cyclopentyl(1-methoxy-2-methylpropan-2-yl)carbamate] | 0.013 µM | 0.0007 µM
16 | CN1c2ccc(Nc3cc([C@@H]4CC[C@H](OC(=O)NC5CC6(CCC6)C5)C4)[nH]n3)cc2CS1(=O)=O (relative stereo) [Example 224, cis-3-(3-((1-methyl-2,2-dioxido-1,3-dihydrobenzo[c]isothiazol-5-yl)amino)-1H-pyrazol-5-yl)cyclopentyl spiro[3.3]heptan-2-ylcarbamate] | 2.58 µM | 0.029 µM
17 | CCCNC(=O)O[C@H]1CC[C@@H](c2cc(Nc3cc4c(cc3F)NS(=O)(=O)C4)n[nH]2)C1 (relative stereo) [Example 293, cis-3-(3-((6-fluoro-2,2-dioxido-1,3-dihydrobenzo[c]isothiazol-5-yl)amino)-1H-pyrazol-5-yl)cyclopentyl propylcarbamate] | 1.12 µM | 0.064 µM
18 | O=C(NC1CCC1)O[C@H]1CC[C@@H](c2cc(Nc3ccc4c(c3)CS(=O)(=O)N4)n[nH]2)C1 (single isomer, unassigned) [Example 380b, cis-3-(3-((2,2-dioxido-1,3-dihydrobenzo[c]isothiazol-5-yl)amino)-1H-pyrazol-5-yl)cyclopentyl cyclobutylcarbamate] | 0.023 µM | 0.0009 µM
